Series [1] has as its target T1, SARS-CoV-2 RdRp (nsp12/nsp7/nsp8) (Severe acute respiratory syndrome coronavirus 2, UniProt P0DTD1).
T1 construct: added initiator Met before nsp12 (N); made in house; host or cells: Sf9 insect cells (Spodoptera frugiperda), baculovirus
In words: FRET-based strand displacement assay (RdRp activity). The conditions noted are these: 100 nM RNA substrate, 300 µM of each NTP. The format is biochemical.

For series [2], the system named is SARS-CoV-2 in Vero E6 cells. The series can be described thus: Viral inhibition assay (N protein immunofluorescence). The conditions noted are these: for EC50: read-out: EC50 antiviral activity against SARS-CoV-2. The format is cell-based.
In series [3] the target is T1, SARS-CoV-2 RdRp (nsp12/nsp7/nsp8). In words: Gel-based polymerisation (primer-extension) assay. It is filed as biochemical. The conditions noted are these: compound at 50 µM, 30-min reaction, 300 nM RdRp, native PAGE.
The next series relates to influenza infection. The note with it: treated mice; cited from earlier work.
For series [4], the system named is influenza A viruses in A549 cells. Further details: method as in PMID 26711748. The conditions noted are these: different strains, read-out: EC50 suppression of replication of influenza A viruses; cited from earlier work.
Another series concerns Vero E6 cells. In words: Cell viability in the viral inhibition assay (DRAQ7 staining). The conditions noted are these: DRAQ7 area, concentrations tested up to 300 µM.
The test system of series [5] is SARS-CoV-2 in Vero E6 cells. Further details: method as in Zeng et al. [46]. The note with it: same protocol, ref Zeng et al. [46], read-out: EC50 against SARS-CoV-2; cited from earlier work.
The mark [6] stands for this setting: IC50 (µM) + 0.01% Triton X-100, 150 nM RdRp, presence of 0.01% Triton X-100.
Where [7] appears, read: IC50 (µM) No detergent, 150 nM RdRp, absence of Triton X-100.
[8] abbreviates: Severe acute respiratory syndrome coronavirus 2, Vero C1008, Vero E6 cells, MOI 0.5 PFU/cell, 22 h, area of viral plaques by N protein staining.
[9] abbreviates: Severe acute respiratory syndrome coronavirus 2, Vero C1008, 22 h.

This is an account of results in publication PMC8286815 (Biochemical Journal, 2021).

Read-outs that look alike come from different tables or passages of the source.

As to `OC[C@@H](O)[C@H]1NC[C@@H](O)[C@H]1O` [1,4-Dideoxy-1,4-imino-D-mannitol], the “IC50 (µM) No detergent” value in series [1] (150 nM RdRp, absence of Triton X-100) is given as “no cl ear i nhi bi ti”. For the same molecule, the “IC50 (µM) + 0.01% Triton X-100” value in series [1] (150 nM RdRp, presence of 0.01% Triton X-100) was “no cl ear i nhi bi ti”.
As for `CC(C)C(C(=O)O)N1C(=O)/C(=C/c2ccc(Br)cc2)SC1=S` (stereo not shown) [BH3I-1], the IC50 (usually the concentration that inhibits the measured activity by half) in series [1] (setting [6]) came out at 13 µM; in series [1] (setting [7]), 14 µM. The 50% effective concentration (EC50) – broadly, the midpoint of the concentration-response curve – in series [2] (setting [8]) came out at 77 µM. In addition, the “Inhibition of RNA duplex formation” value in series [3] is listed as “inhibited RNA duplex formation almost completely”.
For the molecule `CC1=NN(c2ccc(C(=O)O)cc2)C(=O)C1=Cc1ccc(-c2cc(C)c(C)cc2[N+](=O)[O-])o1` [C646], the “Toxicity in murine models of influenza infection” value with influenza infection is “no associated toxicity”. Also, the “Viral replication in murine models of influenza infection” value in the series with influenza infection is reported as “significant reduction in viral replication”. The IC50 worked out at 7.8 µM in series [1] (setting [6]) and 6.1 µM in series [1] (setting [7]). In addition, the figures for the EC50 in series [2] (setting [8]) and in series [4] were 19 µM and 16 µM, respectively. Moreover, in series [3], the “Inhibition of RNA duplex formation” value is recorded as “inhibited RNA duplex formation almost completely”.
On to `NC(=O)c1cc[n+](CC2=C(C(=O)O)N3C(=O)[C@@H](NC(=O)[C@@H](c4ccccc4)S(=O)(=O)[O-])[C@H]3SC2)cc1` [Cefsulodin], for which the results for the IC50 in series [1] (setting [6]) and in series [1] (setting [7]) were 49 µM and 50 µM, respectively. Besides, the EC50 in series [2] (setting [9]) worked out at 108 µM. Besides, the “Inhibition of RNA duplex formation” value in series [3] is “partial inhibition”.
In the case of `Nc1c(C(=O)O)c2nc3c(C(=O)O)cccc3oc-2cc1=O` [Cinnabarinic Acid], the IC50 in series [1] (setting [6]) and in series [1] (setting [7]) was greater than 100 µM each time.
Take `O=C(O)c1ccc(-c2c[nH]c3ncc(-c4ccccc4)cc23)cc1C1CCCC1` [GSK-650394]: the IC50 in series [1] (setting [6]) came to 29 µM; in series [1] (setting [7]), 31 µM. In addition, the EC50 in series [2] (setting [9]) is 7.6 µM. Further, in the series with Vero E6 cells, the “Concentration at which cytotoxicity was seen” value is 300 µM. Further, the “Inhibition of RNA duplex formation” value in series [3] is reported as “partial inhibition”.
`O=C1C(=O)N(Cc2ccc(Cl)c(Cl)c2)c2ccccc21` [MDK-83190]: the EC50 in series [2] (setting [9]) was determined as 81 µM.
`CCC(CC)COC(=O)[C@H](C)N[P@](=O)(OC[C@H]1O[C@@](C#N)(c2ccc3c(N)ncnn23)[C@H](O)[C@@H]1O)Oc1ccccc1` [Remdesivir]: in series [2] (Severe acute respiratory syndrome coronavirus 2, Vero C1008, 0.5 µM, Vero E6 cells, read-out: Inhibition of viral infection as a single agent), the inhibition – broadly, the change of the read-out against control, counted positive when it falls – at 0.5 µM is less than 10%. Moreover, the half-maximal effective concentration (EC50) in series [2] (setting [8]) turned out to be 1.8 µM.
`Cc1ccc(C(=O)Nc2ccc(S(=O)(=O)O)c3cc(S(=O)(=O)O)cc(S(=O)(=O)O)c23)cc1NC(=O)c1cccc(NC(=O)Nc2cccc(C(=O)Nc3cc(C(=O)Nc4ccc(S(=O)(=O)O)c5cc(S(=O)(=O)O)cc(S(=O)(=O)O)c45)ccc3C)c2)c1` [Suramin]: the IC50 in series [1] (setting [6]) turned out to be 0.78 µM; in series [1] (setting [7]), 0.43 µM. The EC50 in series [5] was 9.9 µM. Further, the “Inhibition of RNA duplex formation” value in series [3] was “inhibited RNA duplex formation almost completely”.
